This note sets out measurements from ChEMBL document CHEMBL5154822, “Novel inhibitors of AChE and Aβ aggregation with neuroprotective properties as lead compounds for the treatment of Alzheimer's disease” (Eur J Med Chem, 2022).

Data set [1] is described as follows: Ratio of drug concentration in brain to plasma in ICR mouse at 1 mg/kg, ig measured after 0.5 hrs by LC/MS-MS analysis. Format: ADME, organism-based. The following applies: po, read-out: BPR.
The nature of data set [2]: Drug concentration in ICR mouse brain at 1 mg/kg, ig measured after 4 hrs by LC/MS-MS analysis. The class given is ADME, organism-based. Conditions: po, read-out: Ct.
The nature of data set [3]: Drug concentration in ICR mouse brain at 1 mg/kg, ig measured after 0.25 hrs by LC/MS-MS analysis. Format: ADME, organism-based. The following applies: po, read-out: Ct.
A short description of data set [4]: Ratio of drug concentration in brain to plasma in ICR mouse at 1 mg/kg, ig measured after 4 hrs by LC/MS-MS analysis. Conditions: po, read-out: BPR. The class given is ADME, organism-based.
Data set [5] is described as follows: Drug concentration in ICR mouse plasma at 1 mg/kg, ig measured after 0.25 hrs by LC/MS-MS analysis. The class given is ADME, organism-based. The following applies: po.
Data set [6] concerns the target T1, Acetylcholinesterase (Mus musculus, UniProt P21836).
T1 sequence (P21836 whole entry): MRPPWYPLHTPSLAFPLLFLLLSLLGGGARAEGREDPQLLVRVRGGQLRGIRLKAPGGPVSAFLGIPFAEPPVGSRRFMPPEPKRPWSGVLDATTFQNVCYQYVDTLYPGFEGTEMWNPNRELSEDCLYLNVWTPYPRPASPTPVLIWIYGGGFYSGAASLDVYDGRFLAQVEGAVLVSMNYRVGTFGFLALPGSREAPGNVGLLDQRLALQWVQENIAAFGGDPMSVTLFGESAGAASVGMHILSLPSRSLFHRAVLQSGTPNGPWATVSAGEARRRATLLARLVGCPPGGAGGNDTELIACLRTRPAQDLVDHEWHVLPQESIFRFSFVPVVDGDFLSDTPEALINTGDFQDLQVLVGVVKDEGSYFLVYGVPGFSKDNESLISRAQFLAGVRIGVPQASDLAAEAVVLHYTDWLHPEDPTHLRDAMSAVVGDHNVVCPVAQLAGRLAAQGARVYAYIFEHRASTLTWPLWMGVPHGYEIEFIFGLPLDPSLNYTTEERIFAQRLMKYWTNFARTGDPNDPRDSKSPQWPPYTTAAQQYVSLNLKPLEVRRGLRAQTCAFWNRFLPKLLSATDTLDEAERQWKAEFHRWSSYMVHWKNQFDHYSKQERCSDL
The data set can be described thus: Inhibition of AChE in mouse cerebral cortex using acetylthiocholine iodide as substrate preincubated for 10 mins followed by substrate addition and measured for 180 secs by Ellman's spectrophotometric method. The class given is tissue-based.

Data set [7] can be described thus: Ratio of drug concentration in brain to plasma in ICR mouse at 1 mg/kg, ig measured after 1 hr by LC/MS-MS analysis. The class given is ADME, organism-based. The following applies: po, read-out: BPR.
Data set [8] in a line: Cytotoxicity against human SH-SY5Y cells assessed as maximum non-cytotoxic concentration by CellTiter-Glo luminescent assay. Format: toxicity, cell-based. Conditions: read-out: MNCC. Background: ATP-based viability assays read luminescence as a measure of living cells.
Data set [9] can be described thus: Drug concentration in ICR mouse plasma at 1 mg/kg, ig measured after 2 hrs by LC/MS-MS analysis. The class given is ADME, organism-based. The following applies: po.
Data set [10] in a line: Drug concentration in ICR mouse plasma at 1 mg/kg, ig measured after 1 hr by LC/MS-MS analysis. Format: ADME, organism-based. Conditions: po.
Data set [11] is described as follows: Ratio of drug concentration in brain to plasma in ICR mouse at 1 mg/kg, ig measured after 0.25 hrs by LC/MS-MS analysis. The following applies: po, read-out: BPR. Format: ADME, organism-based.
Data set [12] in a line: Drug concentration in ICR mouse plasma at 1 mg/kg, ig measured after 4 hrs by LC/MS-MS analysis. Format: ADME, organism-based. Conditions: po.
Data set [13] can be described thus: Drug concentration in ICR mouse plasma at 1 mg/kg, ig measured after 0.5 hrs by LC/MS-MS analysis. The class given is ADME, organism-based. The following applies: po.
Data set [14] can be described thus: Drug concentration in ICR mouse brain at 1 mg/kg, ig measured after 0.5 hrs by LC/MS-MS analysis. Format: ADME, organism-based. The following applies: po, read-out: Ct.
Data set [15] can be described thus: Drug concentration in ICR mouse brain at 1 mg/kg, ig measured after 1 hr by LC/MS-MS analysis. Conditions: po, read-out: Ct. Format: ADME, organism-based.
Data set [16] is described as follows: Ratio of drug concentration in brain to plasma in ICR mouse at 1 mg/kg, ig measured after 2 hrs by LC/MS-MS analysis. Format: ADME, organism-based. Conditions: po, read-out: BPR.
In data set [17] the target is T1, Acetylcholinesterase. The data set can be described thus: Mixed-type inhibition of AChE in mouse cerebral cortex using acetylthiocholine iodide as substrate by double reciprocal Lineweaver-Burk plot analysis. The class given is tissue-based.
A short description of data set [18]: Drug concentration in ICR mouse brain at 1 mg/kg, ig measured after 2 hrs by LC/MS-MS analysis. Conditions: po, read-out: Ct. Format: ADME, organism-based.

In general, IC50 refers to the midpoint of a concentration-inhibition curve. Read a high IC50 as weaker potency. Broadly, the Ki is the equilibrium dissociation constant of an inhibitor or competing ligand from its target. Consider `COc1cc2c(cc1OC)S(=O)(=O)C(F)(CC1CCN(Cc3cccc(F)c3)CC1)C2` (stereo not drawn), for which the Kp at 0.5 h in data set [1] worked out at 5.24. Besides, the concentration at 4 h in [2] was found to be 21.7 ng/mL; in data set [12], 2.7 ng/mL. The values for the concentration at 0.25 h in data set [3] and in data set [5] were 10.6 ng/mL and 2.89 ng/mL, respectively. The Kp at 4 h in data set [4] was found to be 8.47. In addition, on Acetylcholinesterase [6], the IC50 amounted to 2.4 nM. For the same compound, in data set [7], the Kp at 1 h was 6.33. Moreover, the MNTC in data set [8] came to 10 µM. Further, the concentration at 2 h in [9] is 2.59 ng/mL; in [18], 21.8 ng/mL. The results for the concentration at 1 h in data set [10] and in data set [15] were 3.48 ng/mL and 21.9 ng/mL, respectively. The Kp at 0.25 h in [11] came to 4.17. Moreover, the concentration at 0.5 h in [13] worked out at 3.42 ng/mL; in data set [14] it was 18.1 ng/mL. In data set [16], the Kp at 2 h turned out to be 8.4. For the same compound, at Acetylcholinesterase [17], the Ki was determined as 0.4 nM.
